In patent US11471502B2, “Neuroprotective peptide” (UNIVERSITY COLLEGE CARDIFF C[…], priority 2017, dated 2022):
Entries after “also recorded” stand apart in the source; their conditions may differ.

Columns and labels:
Tg2576 mice = test: Tg2576 mouse model of Alzheimer's Disease, neuroprotection; assay type: in vivo; conditions: 20 mg/kg i.p., 7 days
Method: Two-way ANOVA Bonferroni post-hoc comparison **p<0.01***p<0.001.
The genetic model of Alzheimer's Disease Tg2576 and their WT controls have been treated for 7 days with RB5/scramble peptide (20 mg/kg, i.p).

[1] = RB5 brain levels by HPLC-MS/MS after single i.p. administration; assay type: in vivo, mouse; conditions: single i.p. 20 mg/kg, mass spectrometry
Method: Bioavailability of RB5 in the mouse brain was determined at different time intervals (1, 3, 6, 12 h) after a single i.p. administration of 20 mg/kg. RB5 was then quantified in mouse brain using HPLC-MS/MS. Brain samples were homogenized with 1:4 w/v of 50% acetonitrile, 5% TFA in water with an homogenizer ultra-turrax and then centrifuged at 13000 rpm for 10 min at 4° C. The supernatant was collected and centrifuged at 13000 rpm for 2 minutes at 4° C. The supernatant was then collected in ice, extracted using Sep-Pak cartridges C18, lyophilised and kept at 4° C. before HPLC-MS/MS analysis. Immediately before the analysis samples were suspended in 100 μL of 0.1% HCOOH in water/8% acetonitrile in auto-sampler vials.
HPLC-MS/MS analysis was performed using a system consisting of an Agilent 1200 series HPLC system coupled with an Agilent 6410 Triple Quadruple mass spectrometer. Mass Hunter Workstation v. […] The quantification of mouse brain levels of RB5 and scramble peptides was carried out using an internal standard curve with peptide concentrations ranging from 0.1 to 4 ng per μl. […]
Peptides were then detected on an Agilent 6410 QQQ mass spectrometer using the following parameters: positive ion mode, 5 kV capillary voltage, cone voltage 500 V, gas flow rate 8 L/min at 350° C., nebulizer gas pressure 40 PSI at 350° C., well time 75 msec and Q1 and Q3 set to unit resolution.

ERK1/MAPK3 = test: Single in vivo administration in ERK1 KO versus ERK1 WT mice; parameters: species or system mouse
Method: (§1) a) RB5 peptide selectively promoted activation of ERK2. Acute striatal slices either pre-treated with Scramble (SCR) or RB5 peptide (50 μM) and then stimulated 10 minutes with glutamate (GLU) (100 μM) or vehicle were analysed in Western blot (left panel) and probed with anti phospho ERK antibodies (p44^ERK1 and p42^ERK2) and anti ERK1/2 antibody. GAPDH was used as loading control. […] No changes were detected in the total ERK1 and ERK2 levels. GAPDH was used as loading control. […] Mice injected with a single dose of CPP-SCR or CPP-RB5 peptides (20 mg/kg, i.p.) were rapidly perfused 1 h later and brains were dissected and further analysed for IHC and immunofluorescence. Representative photomicrographs of pERK1/2, pMSK, pAch3, pELK1 and c-Fos expression in the striatum. […] Two-way ANOVA Bonferroni post hoc comparison: one black star, p<0.05, two black stars, p<0.01, one white star, p<0.001. p) Dose response curve of RB5 peptide for ERK activation. 200 μm thick striatal slices were freshly prepared from 2-month old mice and transferred into a perfusion chamber for 1 h at 32° C. Slices were pre-treated with different doses of RB5 or scrambled control. After 1 h, slices for each dose was fixed in PFA 4% for 15 min. 18 μm cryo-sections were processed for immunohistochemistry with anti-phospho p44/p42 MAP kinase. Neuronal quantification was performed with ImageJ software by counting the number of phospho-ERK positive cells in each slice. The level of activation is expressed on the Y-axis as arbitrary units (AU). Doses are reported in a logarithmic scale (Log 10) on the X-axis. The EC50 was calculated using GraphPad Prism software.
ERK1 male KO and littermate controls, were generated as described previously and were used for ex vivo analysis.
Mice pre-treated with a single dose of CPP-RB5 or CPP-SCR (20 mg/kg) were perfused 1 h later and brain slices were processed for nuclear and cytoplasmic markers.

HdhQ111 mice = test: HdhQ111 genetic mouse model of Huntington's disease; assay type: in vivo
Method: WT and HdhQ111 mice were treated with CPP-RB5 or Scramble (CPP-SCR) peptides (20 mg/kg i.p.) for 8 days.
Two-way ANOVA Bonferroni post-hoc comparison ***p<0.001.
HdhQ111 heterozygous mice (Jax®, Bar Harbour, Me., U.S.A.), zQ175 knock-in heterozygous (mix sex) carrying between 180 and 195 CAG repeats (CHDI-81003003, Psychogenics, Inc. Tarrytown, N.Y.) and Tg2576 transgenic male mice (C57BL6 and SLJ mix background, Taconic Biosciences) were used for IHC, IF and behavioural test.
We also evaluated the potential neuroprotective effect of RB5, in hdhQ111 transgenic mice, a late onset genetic model of Huntington's Disease. hdhQ111 mice were treated (20 mg/kg, i.p., twice a day) for 7 days (FIG. 5).

[2] = molecular target: phospho p44/p42 MAP kinase; test: Dose response curve of RB5 for ERK activation in striatal slices; assay type: cell-based, mouse; conditions: 200 μm striatal slices, 1 h pre-treatment; read-out: EC50 for enhancing pERK (phospho-ERK positive cells)
Method: as §1, with “18 μm cryo-sections were processed for immunohistochemistry with anti-phospho p44/p42 MAP kinase.” left out, “The level of activation is expressed on the Y-axis as arbitrary units (AU). Doses are reported in a logarithmic scale (Log 10) on the X-axis.” left out

## CSCC[C@H](NC(=O)[C@H](CCC(=O)O)NC(=O)[C@@H](NC(=O)[C@H](CCC(=O)O)NC(=O)CNC(=O)[C@@H]1CCCN1C(=O)[C@@H](NC(=O)CNC(=O)[C@@H]1CCCN1C(=O)CNC(=O)[C@@H](NC(=O)CNC(=O)[C@H](CCC(=O)O)NC(=O)[C@@H](NC(=O)[C@H](CCCNC(=N)N)NC(=O)[C@H](CCCNC(=N)N)NC(=O)[C@@H]1CCCN1C(=O)[C@H](CCC(=O)O)NC(=O)CNC(=O)CNC(=O)CNC(=O)CNC(=O)CNC(=O)[C@H](CCC(N)=O)NC(=O)[C@@H]1CCCN1C(=O)[C@@H]1CCCN1C(=O)[C@H](CCCNC(=N)N)NC(=O)[C@H](CCCNC(=N)N)NC(=O)[C@H](CCCNC(=N)N)NC(=O)[C@H](CCC(N)=O)NC(=O)[C@H](CCCNC(=N)N)NC(=O)[C@H](CCCNC(=N)N)NC(=O)[C@H](CCCCN)NC(=O)[C@H](CCCCN)NC(=O)[C@H](CCCNC(=N)N)NC(=O)CNC(C)=O)[C@@H](C)O)C(C)C)C(C)C)C(C)C)C(=O)N[C@H](C(=O)N[C@@H](CCCCN)C(=O)NCC(=O)N[C@@H](CCC(N)=O)C(=O)N1CCC[C@H]1C(=O)N[C@@H](Cc1ccccc1)C(=O)N[C@@H](CC(=O)O)C(=O)N[C@@H](C(=O)O)C(C)C)C(C)C [RB5]
Tg2576 mice
  ERK activation (pERK) in hippocampal CA1 and Dentate Gyrus: increased pERK; also recorded: significant enhancement of ERK activation
  pre-apoptotic state (Cleaved Caspase-3 staining): reduced the levels of cleaved caspase-3 staining; also recorded: significant reduction of the pre-apoptotic state
[1]
  time up to which high RB5 brain levels were detected: up to 6 h
ERK1/MAPK3; ERK1 KO mice, single administration
  pERK, pAcH3 (and pS6): did not alter; also recorded: did not reach the statistical significance
ERK1/MAPK3; ERK1 WT mice, single administration
  pERK and pAcH3: significant activation
ERK1/MAPK3; ERK1 WT vs ERK1 KO mice
  phosphorylation of S6: comparable in both genotypes
HdhQ111 mice; 20 mg/kg i.p. twice a day, 7 days
  degeneration in the hdhQ111 mutants: prevents degeneration
HdhQ111 mice; 20 mg/kg i.p., 8 days
  ERK activation (pERK) in striatum: elevated pERK in WT and mutant striata; also recorded: significant enhancement of ERK activation
HdhQ111 mice; HdhQ111 mice, 20 mg/kg i.p., vs Scramble
  apoptotic cells (TUNEL, dorsal striatum): significant reduction of apoptotic cells
HdhQ111 mice; hdhQ111 mice, 20 mg/kg i.p.
  pre-apoptotic state (Cleaved Caspase-3): significant reduction of pre-apoptotic state
[2]
  EC50: 3.4 µM
